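Briefly, cells in 96-well plates were exposed to five compound concentrations for 48 h, and endpoints were estimated by linear interpolation. TGI: concentration producing complete growth inhibition.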
The compounds below were run on SK-MEL-2 melanoma (assay: growth of human tumour cells (NCI), 48 h).

SMILES | TGI [µM]
O=C1c2[nH]c3ccccc3c2CCN2CCCCC12 (centres undefined) | 36.3
c1coc(C2=Nc3cccc4cccc(c34)N2)c1 | > 100
CCOC(=O)C1C(=O)C=C(c2cc(C)ccc2O)CC1c1cccc(Cl)c1 (centres undefined) | 46.7
CC1=CC(C)(C)[C@H]2O[C@@]3(O)C[C@]4(C)[C@H]5C[C@@](C(C)C)(O[C@H]4c4ccoc4)O[C@H]4[C@]5(C3)O[C@@]1(O)[C@]24O | > 100

Each compound was assayed on NCI-H226 lung (assay: growth of human tumour cells (NCI), 48 h).

SMILES | TGI [µM]
O=C1c2[nH]c3ccccc3c2CCN2CCCCC12 (centres undefined) | 48.8
COc1ccc(/C=C2\Oc3cc(OC(C)=O)ccc3C2=O)cc1 | > 100
c1coc(C2=Nc3cccc4cccc(c34)N2)c1 | > 100
CCOC(=O)C1C(=O)C=C(c2cc(C)ccc2O)CC1c1cccc(Cl)c1 (centres undefined) | 73.5
CC1=CC(C)(C)[C@H]2O[C@@]3(O)C[C@]4(C)[C@H]5C[C@@](C(C)C)(O[C@H]4c4ccoc4)O[C@H]4[C@]5(C3)O[C@@]1(O)[C@]24O | > 100

The compounds below were run on SNB-75 CNS (assay: growth of human tumour cells (NCI), 48 h).

SMILES | TGI [µM]
O=C1c2[nH]c3ccccc3c2CCN2CCCCC12 (centres undefined) | 73.5
COc1ccc(/C=C2\Oc3cc(OC(C)=O)ccc3C2=O)cc1 | > 100
c1coc(C2=Nc3cccc4cccc(c34)N2)c1 | > 100
CC1=CC(C)(C)[C@H]2O[C@@]3(O)C[C@]4(C)[C@H]5C[C@@](C(C)C)(O[C@H]4c4ccoc4)O[C@H]4[C@]5(C3)O[C@@]1(O)[C@]24O | 64.6

These compounds were tested on HS 578T breast (assay: growth of human tumour cells (NCI), 48 h).

SMILES | TGI [µM]
O=C1c2[nH]c3ccccc3c2CCN2CCCCC12 (centres undefined) | 71.8
COc1ccc(/C=C2\Oc3cc(OC(C)=O)ccc3C2=O)cc1 | > 100
c1coc(C2=Nc3cccc4cccc(c34)N2)c1 | > 100
CCOC(=O)C1C(=O)C=C(c2cc(C)ccc2O)CC1c1cccc(Cl)c1 (centres undefined) | 58
CC1=CC(C)(C)[C@H]2O[C@@]3(O)C[C@]4(C)[C@H]5C[C@@](C(C)C)(O[C@H]4c4ccoc4)O[C@H]4[C@]5(C3)O[C@@]1(O)[C@]24O | > 100

What follows are compounds tested on SK-MEL-5 melanoma (assay: growth of human tumour cells (NCI), 48 h).

SMILES | TGI [µM]
COc1ccc(/C=C2\Oc3cc(OC(C)=O)ccc3C2=O)cc1 | > 100
c1coc(C2=Nc3cccc4cccc(c34)N2)c1 | > 100
CCOC(=O)C1C(=O)C=C(c2cc(C)ccc2O)CC1c1cccc(Cl)c1 (centres undefined) | 50.5
CC1=CC(C)(C)[C@H]2O[C@@]3(O)C[C@]4(C)[C@H]5C[C@@](C(C)C)(O[C@H]4c4ccoc4)O[C@H]4[C@]5(C3)O[C@@]1(O)[C@]24O | > 100

Each compound was assayed on U251 CNS (assay: growth of human tumour cells (NCI), 48 h).

SMILES | TGI [µM]
O=C1c2[nH]c3ccccc3c2CCN2CCCCC12 (centres undefined) | 38.3
COc1ccc(/C=C2\Oc3cc(OC(C)=O)ccc3C2=O)cc1 | > 100
c1coc(C2=Nc3cccc4cccc(c34)N2)c1 | > 100
CCOC(=O)C1C(=O)C=C(c2cc(C)ccc2O)CC1c1cccc(Cl)c1 (centres undefined) | 40.7
CC1=CC(C)(C)[C@H]2O[C@@]3(O)C[C@]4(C)[C@H]5C[C@@](C(C)C)(O[C@H]4c4ccoc4)O[C@H]4[C@]5(C3)O[C@@]1(O)[C@]24O | > 100

These compounds were tested on HCC-2998 colon (assay: growth of human tumour cells (NCI), 48 h).

SMILES | TGI [µM]
O=C1c2[nH]c3ccccc3c2CCN2CCCCC12 (centres undefined) | 33.2
COc1ccc(/C=C2\Oc3cc(OC(C)=O)ccc3C2=O)cc1 | > 100
c1coc(C2=Nc3cccc4cccc(c34)N2)c1 | > 100
CCOC(=O)C1C(=O)C=C(c2cc(C)ccc2O)CC1c1cccc(Cl)c1 (centres undefined) | 69.8
CC1=CC(C)(C)[C@H]2O[C@@]3(O)C[C@]4(C)[C@H]5C[C@@](C(C)C)(O[C@H]4c4ccoc4)O[C@H]4[C@]5(C3)O[C@@]1(O)[C@]24O | > 100

Each compound was assayed on UACC-257 melanoma (assay: growth of human tumour cells (NCI), 48 h).

SMILES | TGI [µM]
O=C1c2[nH]c3ccccc3c2CCN2CCCCC12 (centres undefined) | 39.5
COc1ccc(/C=C2\Oc3cc(OC(C)=O)ccc3C2=O)cc1 | > 100
c1coc(C2=Nc3cccc4cccc(c34)N2)c1 | > 100
CC1=CC(C)(C)[C@H]2O[C@@]3(O)C[C@]4(C)[C@H]5C[C@@](C(C)C)(O[C@H]4c4ccoc4)O[C@H]4[C@]5(C3)O[C@@]1(O)[C@]24O | > 100

These compounds were tested on T-47D breast (assay: growth of human tumour cells (NCI), 48 h).

SMILES | TGI [µM]
O=C1c2[nH]c3ccccc3c2CCN2CCCCC12 (centres undefined) | 74.9
COc1ccc(/C=C2\Oc3cc(OC(C)=O)ccc3C2=O)cc1 | > 100
c1coc(C2=Nc3cccc4cccc(c34)N2)c1 | 23
CCOC(=O)C1C(=O)C=C(c2cc(C)ccc2O)CC1c1cccc(Cl)c1 (centres undefined) | > 100
CC1=CC(C)(C)[C@H]2O[C@@]3(O)C[C@]4(C)[C@H]5C[C@@](C(C)C)(O[C@H]4c4ccoc4)O[C@H]4[C@]5(C3)O[C@@]1(O)[C@]24O | > 100

What follows are compounds tested on MDA-MB-435 (assay: growth of human tumour cells (NCI), 48 h).

SMILES | TGI [µM]
O=C1c2[nH]c3ccccc3c2CCN2CCCCC12 (centres undefined) | 31
COc1ccc(/C=C2\Oc3cc(OC(C)=O)ccc3C2=O)cc1 | > 100
c1coc(C2=Nc3cccc4cccc(c34)N2)c1 | > 100
CCOC(=O)C1C(=O)C=C(c2cc(C)ccc2O)CC1c1cccc(Cl)c1 (centres undefined) | 8.23
CC1=CC(C)(C)[C@H]2O[C@@]3(O)C[C@]4(C)[C@H]5C[C@@](C(C)C)(O[C@H]4c4ccoc4)O[C@H]4[C@]5(C3)O[C@@]1(O)[C@]24O | > 100

Each compound was assayed on A549 NSCLC (assay: growth of human tumour cells (NCI), 48 h).

SMILES | TGI [µM]
O=C1c2[nH]c3ccccc3c2CCN2CCCCC12 (centres undefined) | 76.3
COc1ccc(/C=C2\Oc3cc(OC(C)=O)ccc3C2=O)cc1 | > 100
c1coc(C2=Nc3cccc4cccc(c34)N2)c1 | > 100
CCOC(=O)C1C(=O)C=C(c2cc(C)ccc2O)CC1c1cccc(Cl)c1 (centres undefined) | 49.1
CC1=CC(C)(C)[C@H]2O[C@@]3(O)C[C@]4(C)[C@H]5C[C@@](C(C)C)(O[C@H]4c4ccoc4)O[C@H]4[C@]5(C3)O[C@@]1(O)[C@]24O | > 100

Each compound was assayed on OVCAR-3 ovarian (assay: growth of human tumour cells (NCI), 48 h).

SMILES | TGI [µM]
O=C1c2[nH]c3ccccc3c2CCN2CCCCC12 (centres undefined) | 37.1
COc1ccc(/C=C2\Oc3cc(OC(C)=O)ccc3C2=O)cc1 | > 100
c1coc(C2=Nc3cccc4cccc(c34)N2)c1 | 65.4
CCOC(=O)C1C(=O)C=C(c2cc(C)ccc2O)CC1c1cccc(Cl)c1 (centres undefined) | > 100
CC1=CC(C)(C)[C@H]2O[C@@]3(O)C[C@]4(C)[C@H]5C[C@@](C(C)C)(O[C@H]4c4ccoc4)O[C@H]4[C@]5(C3)O[C@@]1(O)[C@]24O | > 100

Each compound was assayed on SF-268 CNS (assay: growth of human tumour cells (NCI), 48 h).

SMILES | TGI [µM]
O=C1c2[nH]c3ccccc3c2CCN2CCCCC12 (centres undefined) | 78.9
COc1ccc(/C=C2\Oc3cc(OC(C)=O)ccc3C2=O)cc1 | > 100
c1coc(C2=Nc3cccc4cccc(c34)N2)c1 | > 100
CCOC(=O)C1C(=O)C=C(c2cc(C)ccc2O)CC1c1cccc(Cl)c1 (centres undefined) | 97.3
CC1=CC(C)(C)[C@H]2O[C@@]3(O)C[C@]4(C)[C@H]5C[C@@](C(C)C)(O[C@H]4c4ccoc4)O[C@H]4[C@]5(C3)O[C@@]1(O)[C@]24O | > 100

The compounds below were run on A498 renal (assay: growth of human tumour cells (NCI), 48 h).

SMILES | TGI [µM]
O=C1c2[nH]c3ccccc3c2CCN2CCCCC12 (centres undefined) | 78.3

These compounds were tested on 786-0 renal (assay: growth of human tumour cells (NCI), 48 h).

SMILES | TGI [µM]
O=C1c2[nH]c3ccccc3c2CCN2CCCCC12 (centres undefined) | 56.9
COc1ccc(/C=C2\Oc3cc(OC(C)=O)ccc3C2=O)cc1 | > 100
c1coc(C2=Nc3cccc4cccc(c34)N2)c1 | > 100
CCOC(=O)C1C(=O)C=C(c2cc(C)ccc2O)CC1c1cccc(Cl)c1 (centres undefined) | > 100
CC1=CC(C)(C)[C@H]2O[C@@]3(O)C[C@]4(C)[C@H]5C[C@@](C(C)C)(O[C@H]4c4ccoc4)O[C@H]4[C@]5(C3)O[C@@]1(O)[C@]24O | > 100

Each compound was assayed on NCI-H23 lung (assay: growth of human tumour cells (NCI), 48 h).

SMILES | TGI [µM]
O=C1c2[nH]c3ccccc3c2CCN2CCCCC12 (centres undefined) | 63.7
COc1ccc(/C=C2\Oc3cc(OC(C)=O)ccc3C2=O)cc1 | > 100

— PubChem BioAssay (NCI)
